The source of these data is ChEMBL document CHEMBL3886634, “Substituted 3-haloallylamine inhibitors of ASSAO and uses thereof” (2016).

Broadly, the IC50 is the concentration needed to halve the response being measured.

Test [1] addresses T1, Amine oxidase [flavin-containing] B (Homo sapiens, UniProt P27338).
T1 sequence (P27338 whole entry): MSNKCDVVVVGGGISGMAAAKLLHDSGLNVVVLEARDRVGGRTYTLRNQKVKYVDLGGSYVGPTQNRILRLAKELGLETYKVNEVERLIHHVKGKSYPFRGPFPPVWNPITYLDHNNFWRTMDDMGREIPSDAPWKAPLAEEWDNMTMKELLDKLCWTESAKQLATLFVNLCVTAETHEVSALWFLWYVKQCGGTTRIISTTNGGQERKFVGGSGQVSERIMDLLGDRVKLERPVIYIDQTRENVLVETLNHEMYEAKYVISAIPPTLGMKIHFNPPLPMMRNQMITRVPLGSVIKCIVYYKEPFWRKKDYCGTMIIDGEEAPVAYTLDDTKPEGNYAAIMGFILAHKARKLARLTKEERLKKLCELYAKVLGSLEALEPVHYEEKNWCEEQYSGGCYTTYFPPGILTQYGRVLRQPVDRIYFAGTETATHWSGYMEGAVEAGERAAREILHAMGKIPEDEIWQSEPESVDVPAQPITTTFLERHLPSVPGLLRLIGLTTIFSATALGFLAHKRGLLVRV

In test [2] the target is T2, Diamine oxidase [copper-containing] (Homo sapiens, UniProt P19801).
T2 sequence (P19801 whole entry): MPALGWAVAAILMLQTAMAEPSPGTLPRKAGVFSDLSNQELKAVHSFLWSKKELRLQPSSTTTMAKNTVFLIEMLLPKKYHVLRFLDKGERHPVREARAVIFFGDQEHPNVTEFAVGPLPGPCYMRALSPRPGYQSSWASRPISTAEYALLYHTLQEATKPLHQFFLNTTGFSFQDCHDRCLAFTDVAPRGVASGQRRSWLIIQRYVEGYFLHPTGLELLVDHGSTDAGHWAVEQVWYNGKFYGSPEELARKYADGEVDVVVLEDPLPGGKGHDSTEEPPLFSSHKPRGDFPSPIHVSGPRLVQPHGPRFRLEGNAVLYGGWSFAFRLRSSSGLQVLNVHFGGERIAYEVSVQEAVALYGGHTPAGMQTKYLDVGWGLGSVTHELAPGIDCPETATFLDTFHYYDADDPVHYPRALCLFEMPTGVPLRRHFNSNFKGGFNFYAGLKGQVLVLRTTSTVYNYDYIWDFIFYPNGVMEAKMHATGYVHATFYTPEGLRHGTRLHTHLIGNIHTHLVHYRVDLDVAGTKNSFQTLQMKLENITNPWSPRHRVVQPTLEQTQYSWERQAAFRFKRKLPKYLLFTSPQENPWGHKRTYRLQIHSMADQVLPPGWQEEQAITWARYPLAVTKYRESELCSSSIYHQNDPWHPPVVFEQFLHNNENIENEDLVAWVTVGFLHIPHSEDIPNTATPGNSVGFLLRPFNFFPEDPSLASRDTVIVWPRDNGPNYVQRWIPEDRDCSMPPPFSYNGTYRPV
Kind of test: DAO Inhibition Assay: Recombinant human DAO (2.4 μg/mL) was used as source of DAO enzyme activities.

With `NC/C(=C/F)CCc1ccc(F)cc1` [MOFEGILINE], the half-inhibitory concentration (IC50) is 5 nM in test [1] and above 10 µM in test [2].
